Laboratory results reported in ChEMBL document CHEMBL1201862, “PubChem BioAssay data set” (2004).
Activity calls are given as the source filed them.

Tests used:
[1] = target: T1, Cytochrome P450 1A2 (Homo sapiens, UniProt P05177);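 also: PubChem cytochrome P450 panel assay, CYP1A2 panel member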
T1 sequence (P05177 whole entry): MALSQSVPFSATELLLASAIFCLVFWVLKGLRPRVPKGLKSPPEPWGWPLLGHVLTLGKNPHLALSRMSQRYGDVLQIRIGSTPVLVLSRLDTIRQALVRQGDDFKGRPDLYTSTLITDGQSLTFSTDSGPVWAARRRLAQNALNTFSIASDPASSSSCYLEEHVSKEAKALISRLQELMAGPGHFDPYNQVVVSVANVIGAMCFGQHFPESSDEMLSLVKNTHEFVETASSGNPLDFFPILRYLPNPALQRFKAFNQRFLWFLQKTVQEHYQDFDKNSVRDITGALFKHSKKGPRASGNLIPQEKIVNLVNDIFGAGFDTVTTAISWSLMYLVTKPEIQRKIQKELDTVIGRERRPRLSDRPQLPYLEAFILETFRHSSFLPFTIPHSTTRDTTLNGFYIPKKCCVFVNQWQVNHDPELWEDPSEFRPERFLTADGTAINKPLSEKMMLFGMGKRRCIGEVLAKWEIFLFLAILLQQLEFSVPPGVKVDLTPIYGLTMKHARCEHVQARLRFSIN

[2] = target: Cytochrome P450 2D6 (Homo sapiens, UniProt P10635);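 also: CYP2D6 member of a cytochrome P450 panel assay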
[3] = target: T2, Heat shock factor protein 1 (Mus musculus, UniProt P38532); assay: inhibition of MG132-induced HSE-luciferase signal, confirmation, cell-based, NIH3T3, luminescence, dose retest (AID 2382); type: functional;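 also: NIH3T3 fibroblasts with HSF1-driven luciferase reporter stressed by proteasome inhibitor MG132; luminescence from HSF1-driven luciferase expression after 8 hours of MG132 stress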
T2 sequence (P38532 whole entry): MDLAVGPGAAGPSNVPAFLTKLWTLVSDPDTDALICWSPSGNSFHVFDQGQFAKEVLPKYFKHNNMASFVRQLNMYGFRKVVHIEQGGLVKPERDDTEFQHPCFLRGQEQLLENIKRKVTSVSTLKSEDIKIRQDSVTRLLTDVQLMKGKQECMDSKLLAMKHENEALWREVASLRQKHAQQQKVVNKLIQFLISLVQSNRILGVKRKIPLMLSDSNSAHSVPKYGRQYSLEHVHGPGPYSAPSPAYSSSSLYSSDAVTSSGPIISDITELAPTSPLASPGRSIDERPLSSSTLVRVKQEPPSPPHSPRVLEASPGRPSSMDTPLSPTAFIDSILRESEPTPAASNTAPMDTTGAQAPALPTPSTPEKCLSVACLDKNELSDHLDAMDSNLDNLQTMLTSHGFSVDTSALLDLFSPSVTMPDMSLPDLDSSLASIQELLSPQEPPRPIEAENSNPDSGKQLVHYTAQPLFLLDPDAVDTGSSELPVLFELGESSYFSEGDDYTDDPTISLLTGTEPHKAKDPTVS

[4] = inhibitors of firefly luciferase expression or activity, dose response, H4 neuroglioma cells, luminescence (AID 1990); type: functional, cell-based
[5] = inhibitors of SNCA 5'UTR-driven reporter translation, confirmation, H4 neuroglioma cells, luminescence (AID 1988); type: functional, cell-based
[6] = Luminescence Cell-Based Dose Response HTS to Identify Inhibitors of 5'UTR Stem-Loop Driven Prion Protein mRNA Translation in H4 Neuroglioblastoma Cells. [Related pubchem assays: 1827 (Project Summary), 1813 (Primary HTS)]; type: functional
[7] = target: Cytochrome P450 2C9 (Homo sapiens, UniProt P11712)
[8] = target: Genome polyprotein (dengue virus type 2, UniProt P29990); assay: Dengue-2 NS5 methyltransferase inhibitors, primary screen, biochemical, confirmation dose response (AID 588689); type: functional
[9] = target: Cytochrome P450 3A4 (Homo sapiens, UniProt P08684);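 also: CYP3A4 tested as one member of a cytochrome P450 panel screen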
[10] = target: T3, RNA-binding protein pos-1 (Caenorhabditis elegans, UniProt G5EF15); assay: inhibitors of POS-1/mex-3 RNA binding, dose response, biochemical, fluorescence polarization (AID 1964);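 also: purified POS-1 fused to maltose binding protein made in E. coli; potency of compounds blocking POS-1 binding to fluorescent RNA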
T3 sequence (G5EF15 whole entry): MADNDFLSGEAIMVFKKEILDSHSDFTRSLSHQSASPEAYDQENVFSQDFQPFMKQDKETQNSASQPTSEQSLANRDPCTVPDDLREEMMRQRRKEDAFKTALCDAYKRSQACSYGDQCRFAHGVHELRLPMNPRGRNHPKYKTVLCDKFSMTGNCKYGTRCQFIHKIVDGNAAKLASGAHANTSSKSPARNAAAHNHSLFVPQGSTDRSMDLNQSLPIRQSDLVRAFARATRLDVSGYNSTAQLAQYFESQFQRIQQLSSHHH

[11] = target: T4, Zinc finger protein mex-5 (Caenorhabditis elegans, UniProt Q9XUB2); assay: MEX-5/TCR-2 RNA interaction inhibitors, dose response, biochemical, C. elegans, fluorescence polarization (AID 1960)
T4 sequence (Q9XUB2 whole entry): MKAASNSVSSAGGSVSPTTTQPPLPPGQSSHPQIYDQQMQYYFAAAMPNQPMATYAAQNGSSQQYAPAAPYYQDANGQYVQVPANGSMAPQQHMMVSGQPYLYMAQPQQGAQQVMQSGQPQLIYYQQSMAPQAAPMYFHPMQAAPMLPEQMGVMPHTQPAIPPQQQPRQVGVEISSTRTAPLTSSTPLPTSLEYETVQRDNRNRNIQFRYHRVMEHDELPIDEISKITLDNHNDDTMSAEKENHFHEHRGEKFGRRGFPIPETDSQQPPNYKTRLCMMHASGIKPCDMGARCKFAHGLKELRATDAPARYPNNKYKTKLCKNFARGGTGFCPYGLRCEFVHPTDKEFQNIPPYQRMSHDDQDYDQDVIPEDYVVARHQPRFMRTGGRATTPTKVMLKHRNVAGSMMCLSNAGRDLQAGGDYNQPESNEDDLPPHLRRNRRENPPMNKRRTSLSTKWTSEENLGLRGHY

[12] = target: Cytochrome P450 2C19 (Homo sapiens, UniProt P33261); assay: Cytochrome panel assay with activity outcomes. Panel member name: p450-cyp2c19 Compounds with AC50 equal or less than 10 uM are considered active; type: functional; details: read-out: AC50
[13] = tested on: Streptococcus; assay: Group A Streptococcus viability loss, dose response, counter-screen for streptokinase expression inhibitor project, luminescence, BacTiterGlo (AID 1915); type: functional, organism-based;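 also: potency for reduction of bacterial viability or growth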
[14] = tested on: INS1; assay: beta cell apoptosis inhibitors, cytokine rescue, dose response, luminescence, retest (AID 449756); type: functional, cell-based; details: Rattus norvegicus;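 also: cell death triggered by IL-1 beta plus TNF-alpha plus IFN-gamma mixture; protective hits raise ATP signal compared with cytokine alone wells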
[15] = tested on: Streptococcus sp. 'group A'; assay: growth inhibition of control SK(-) GAS strain, dose response, counter-screen for streptokinase expression inhibitor project, luminescence, kanamycin, BacTiterGlo, confirmation (AID 1900); type: functional, organism-based
[16] = cytotoxicity toward NIH3T3 fibroblasts, dose response, counter-screen, cell-based, ATP luminescence, mouse fibroblasts (AID 2010); type: functional;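 also: cells exposed to compound for about 90 hours before reading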
[17] = inhibitors of intracellular T. cruzi replication, confirmation, NIH3T3 host cells, beta-gal luminescence (AID 2044); type: functional, cell-based;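 also: intracellular parasites grown in NIH/3T3 mouse fibroblasts as host cells; luminescent beta-galactosidase reporter signal from transgenic T. cruzi replicating inside host cells; inhibitors lower the luminescence signal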

Cytochrome P450 2D6, sequence (P10635 whole entry): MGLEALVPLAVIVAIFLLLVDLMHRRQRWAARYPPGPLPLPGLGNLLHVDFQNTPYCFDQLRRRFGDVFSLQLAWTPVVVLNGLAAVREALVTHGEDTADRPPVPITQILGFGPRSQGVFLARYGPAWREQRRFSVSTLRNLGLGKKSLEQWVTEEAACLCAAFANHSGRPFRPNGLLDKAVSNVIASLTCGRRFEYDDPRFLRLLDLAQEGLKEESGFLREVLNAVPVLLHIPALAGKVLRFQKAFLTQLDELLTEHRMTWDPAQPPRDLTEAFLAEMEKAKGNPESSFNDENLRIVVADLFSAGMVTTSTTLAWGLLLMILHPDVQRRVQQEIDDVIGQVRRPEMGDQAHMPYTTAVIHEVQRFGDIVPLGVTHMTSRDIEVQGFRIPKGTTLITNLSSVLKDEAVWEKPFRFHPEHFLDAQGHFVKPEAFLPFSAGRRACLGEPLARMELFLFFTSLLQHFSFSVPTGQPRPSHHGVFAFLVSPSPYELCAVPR
Cytochrome P450 3A4, sequence (P08684 whole entry, the tested form may be a part): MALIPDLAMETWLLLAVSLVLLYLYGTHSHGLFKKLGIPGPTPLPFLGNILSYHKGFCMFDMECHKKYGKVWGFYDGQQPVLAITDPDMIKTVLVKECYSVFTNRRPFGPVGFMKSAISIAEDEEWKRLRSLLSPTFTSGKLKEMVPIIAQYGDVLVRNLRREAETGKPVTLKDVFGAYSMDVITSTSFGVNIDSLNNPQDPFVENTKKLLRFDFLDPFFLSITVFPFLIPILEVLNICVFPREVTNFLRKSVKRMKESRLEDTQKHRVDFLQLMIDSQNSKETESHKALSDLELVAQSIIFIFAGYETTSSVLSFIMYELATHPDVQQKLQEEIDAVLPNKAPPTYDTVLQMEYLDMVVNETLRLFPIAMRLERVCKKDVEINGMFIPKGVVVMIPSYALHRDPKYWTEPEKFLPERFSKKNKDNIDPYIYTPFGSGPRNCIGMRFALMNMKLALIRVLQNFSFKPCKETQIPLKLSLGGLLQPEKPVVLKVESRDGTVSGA
Cytochrome P450 2C9, sequence (P11712 whole entry): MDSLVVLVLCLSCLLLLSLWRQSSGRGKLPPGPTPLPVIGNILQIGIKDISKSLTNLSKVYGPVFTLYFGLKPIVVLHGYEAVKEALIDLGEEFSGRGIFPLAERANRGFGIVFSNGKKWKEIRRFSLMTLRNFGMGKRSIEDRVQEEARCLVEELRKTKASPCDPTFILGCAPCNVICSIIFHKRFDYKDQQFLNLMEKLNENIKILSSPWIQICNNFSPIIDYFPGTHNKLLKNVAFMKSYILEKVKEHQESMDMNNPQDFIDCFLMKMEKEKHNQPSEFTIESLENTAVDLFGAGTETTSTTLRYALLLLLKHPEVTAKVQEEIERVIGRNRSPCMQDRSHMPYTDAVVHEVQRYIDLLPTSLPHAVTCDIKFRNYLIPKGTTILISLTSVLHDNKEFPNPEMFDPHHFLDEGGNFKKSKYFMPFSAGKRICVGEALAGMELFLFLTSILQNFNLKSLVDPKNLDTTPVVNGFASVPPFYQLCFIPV
Genome polyprotein, sequence (P29990 2492-3391 limits assumed): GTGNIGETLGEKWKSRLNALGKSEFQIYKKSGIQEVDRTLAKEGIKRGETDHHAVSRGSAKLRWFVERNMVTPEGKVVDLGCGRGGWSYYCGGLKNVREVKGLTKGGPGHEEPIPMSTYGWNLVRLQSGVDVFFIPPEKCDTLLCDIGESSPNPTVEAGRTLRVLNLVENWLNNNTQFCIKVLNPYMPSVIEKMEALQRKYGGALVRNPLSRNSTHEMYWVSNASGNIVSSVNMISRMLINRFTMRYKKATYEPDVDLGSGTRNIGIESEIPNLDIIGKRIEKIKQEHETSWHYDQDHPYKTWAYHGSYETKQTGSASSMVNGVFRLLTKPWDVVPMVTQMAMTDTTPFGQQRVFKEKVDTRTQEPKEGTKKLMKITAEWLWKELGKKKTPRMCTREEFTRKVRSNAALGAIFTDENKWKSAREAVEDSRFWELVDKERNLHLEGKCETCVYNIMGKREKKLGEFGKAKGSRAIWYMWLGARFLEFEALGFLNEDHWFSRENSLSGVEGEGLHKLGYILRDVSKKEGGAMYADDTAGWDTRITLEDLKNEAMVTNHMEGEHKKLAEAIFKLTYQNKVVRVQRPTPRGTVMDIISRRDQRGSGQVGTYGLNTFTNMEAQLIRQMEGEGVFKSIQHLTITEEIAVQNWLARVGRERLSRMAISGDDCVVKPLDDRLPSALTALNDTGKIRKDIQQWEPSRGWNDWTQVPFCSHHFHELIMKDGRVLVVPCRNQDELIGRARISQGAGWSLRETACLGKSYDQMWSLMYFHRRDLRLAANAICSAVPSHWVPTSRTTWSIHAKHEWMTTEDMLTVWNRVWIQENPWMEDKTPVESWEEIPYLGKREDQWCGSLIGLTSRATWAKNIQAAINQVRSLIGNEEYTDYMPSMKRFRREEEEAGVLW
Cytochrome P450 2C19, sequence (P33261 whole entry): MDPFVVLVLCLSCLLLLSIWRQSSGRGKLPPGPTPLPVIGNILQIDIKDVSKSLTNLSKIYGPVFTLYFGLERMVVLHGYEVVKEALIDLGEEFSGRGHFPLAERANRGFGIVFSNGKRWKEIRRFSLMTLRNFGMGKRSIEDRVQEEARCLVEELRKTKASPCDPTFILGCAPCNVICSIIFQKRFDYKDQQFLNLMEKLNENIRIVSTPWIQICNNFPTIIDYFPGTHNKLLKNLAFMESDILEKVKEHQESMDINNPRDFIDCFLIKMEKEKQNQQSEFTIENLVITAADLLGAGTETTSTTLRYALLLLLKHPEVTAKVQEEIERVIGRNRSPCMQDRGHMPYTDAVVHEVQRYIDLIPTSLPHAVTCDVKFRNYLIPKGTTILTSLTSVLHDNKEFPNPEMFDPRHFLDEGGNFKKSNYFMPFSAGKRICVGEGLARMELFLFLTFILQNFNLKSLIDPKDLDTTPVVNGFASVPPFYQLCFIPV

For COCCn1c(=O)c(-c2cccc(C#N)c2)nc2cnc(Nc3ccccc3)nc21, the AC50 [1] was 2.51 µM (inconclusive) and the AC50 [2] was 2.51 µM (inconclusive).

For c1ccc(Oc2cccc(OCCn3cncn3)c2)cc1, the EC50 [3] was > 195 µM (not active), the EC50 [4] was > 120 µM (not active) and the EC50 [5] was > 120 µM (not active). The EC50 [6] was > 120 µM (not active).

In the case of COc1cccc(Nc2ncc3nc(-c4ccc(F)cc4)c(=O)n(C)c3n2)c1, the AC50 [1] is reported as 3.16 µM (inconclusive).

With COc1ccc2nc(C)cc(SCC(=O)NNC(=O)COc3ccc(C)cc3)c2c1 the AC50 [7] was 1.78 µM (inconclusive) and the AC50 [2] was 2 µM (inconclusive).

With Cc1ccc(S(=O)(=O)NN2C(=O)/C(=C/c3ccc(C(=O)O)cc3)SC2=S)cc1 the IC50 [8] was 64.9 µM (active).

With COC(=O)C/C=C\[C@@H](C)[C@@H](/C=N\O[C@@H](C)CN1CCCc2nc(C)c(C)cc21)OC the AC50 [9] was 3.16 µM (inconclusive) and the AC50 [2] was 2.51 µM (inconclusive).

In the case of COc1cc(C2C(C#N)=C(N)OC3=C2C(=O)CC(C)(C)C3)c([N+](=O)[O-])cc1OC (stereo not given), the EC50 [10] is reported as 19.5 µM (active), the IC50 [8] is reported as > 100 µM (active) and the EC50 [11] is reported as 23 µM (inconclusive).

In the case of Cc1ccc(-n2nc3ccc(N)cc3n2)c(C)c1, the EC50 [4] is reported as 15.2 µM (active), the EC50 [5] is reported as 16.6 µM (active) and the EC50 [6] is reported as 20.3 µM (active).

With O=[N+]([O-])c1ccc(Nc2nc3ccccc3s2)cc1 the AC50 [9] was 5.01 µM (inconclusive) and the AC50 [2] was 3.16 µM (inconclusive).

For CN(C)c1ncc2nc(CCc3ccccc3)c(=O)n(Cc3cccs3)c2n1, the AC50 [2] was 25.1 µM (inconclusive).

With CNCCNS(=O)(=O)c1cccc2cnccc12 the AC50 [9] was 20 µM (inconclusive) and the AC50 [2] was 5.01 µM (inconclusive).

With CC(C)Oc1ccccc1C1Nc2ccccc2C(=O)N1c1ccc2c(c1)OCCO2 (stereo not given) the EC50 [5] was 9.51 µM (active) and the EC50 [6] was > 120 µM (not active).

In the case of O=C(c1cc(C(F)(F)F)cc(C(F)(F)F)c1)N1CCC[C@@]2(CCN(Cc3nccs3)C2)C1, the AC50 [1] is reported as 20 µM (inconclusive).

With Cc1ccc2c(c1)[C@@H]1CN(C)CC[C@@H]1N2S(=O)(=O)c1ccc(F)cc1 the AC50 [12] was 28.2 µM (inconclusive), the AC50 [7] was 0.00562 µM (inconclusive) and the AC50 [1] was 17.8 µM (inconclusive).

For NNC(=O)c1[nH]c2ccccc2c1-c1ccccc1, the EC50 [4] was > 120 µM (not active), the EC50 [5] was > 120 µM (not active) and the EC50 [6] was > 120 µM (not active).

In the case of Nc1nc(O)c(/N=N\c2ccccc2)c(C(=O)O)n1, the AC50 [1] is reported as 1.26 µM (inconclusive).

In the case of CCCCn1c(SCC(=O)Nc2nccs2)nc2ccccc2c1=O, the AC50 [12] is reported as 0.0708 µM (inconclusive), the AC50 [7] is reported as 0.398 µM (inconclusive) and the AC50 [1] is reported as 0.2 µM (inconclusive).

With CO[C@H]1COC(=O)[C@H]2CCCN2C(=O)C/C=C\[C@@H](C)[C@H](OC)COC(=O)[C@@H](OCc2ccccc2)/C=C\[C@@H]1C the AC50 [9] was 3.98 µM (inconclusive) and the AC50 [2] was 3.16 µM (inconclusive).

With O[C@@H](COc1ccc(Cl)cc1Cl)CN1CCCC1 the AC50 [1] was 5.01 µM (inconclusive).

In the case of CC[C@H](Oc1ccc(Cl)cc1)C(=O)OC1C[C@H]2CC[C@@H](C1)N2C (stereo not given in full), the AC50 [1] is reported as 31.6 µM (inconclusive).

In the case of CCOC(=O)N1CCN(C(=O)CN(c2ccc(OC)cc2)S(C)(=O)=O)CC1, the EC50 [4] is reported as > 120 µM (not active), the EC50 [5] is reported as > 120 µM (not active) and the EC50 [6] is reported as 83.4 µM (active).

For Cn1c(SCc2nc(O)c3ccc(C(=O)O)cc3n2)nnc1C(F)(F)F, the EC50 [4] was > 120 µM (not active), the EC50 [5] was > 120 µM (not active) and the EC50 [6] was 38.9 µM (active).

With CC(C)C[C@H](NC(=O)c1[nH]cnc1C(=O)N[C@@H](CC(C)C)C(=O)OC(C)(C)C)C(=O)OCc1ccccc1 the EC50 [4] was 21.1 µM (active), the EC50 [13] was 6.41 µM (active) and the AC50 [14] was 11.8 µM (active). The EC50 [5] was 8.51 µM (active), the EC50 [15] was 2.62 µM (active) and the EC50 [6] was 15.7 µM (active).

In the case of COc1cccc(-c2cc(NCc3cccnc3)ncn2)c1, the AC50 [2] is reported as 25.1 µM (inconclusive).

With Cc1ccc2sc(N(CCCN(C)C)C(=O)CCS(=O)(=O)c3ccccc3)nc2c1C the EC50 [4] was 14.3 µM (active), the EC50 [16] was 4.17 µM (active) and the EC50 [17] was 0.226 µM (active). For the same compound, the EC50 [5] was 11.1 µM (active) and the EC50 [6] was 13.7 µM (active).

With O=C(NCCN1CCN(C(=O)c2cccc(Br)c2)CC1)C(=O)Nc1ccc(Br)cc1 the EC50 [4] was 13.8 µM (active), the EC50 [5] was 65.2 µM (active) and the EC50 [6] was 18.7 µM (active).

With COc1ccc(Nc2nc(N)nc(CSc3nc(C)cc(C)n3)n2)cc1 the EC50 [3] was > 195 µM (not active), the EC50 [4] was 19.8 µM (active) and the EC50 [5] was 91.3 µM (active). For the same compound, the EC50 [6] was > 120 µM (not active).

In the case of CS(=O)(=O)Nc1cccc(-c2ccc3ncnc(NCc4cccnc4)c3c2)c1, the AC50 [2] is reported as 20 µM (inconclusive).

For CC(C)(C)NC(=O)CN(Cc1cccs1)C(=O)CCC(=O)Nc1nccs1, the AC50 [2] was 28.2 µM (inconclusive).

For COc1ccc(C(=O)N/N=C2/SCC(=O)N2Cc2ccc3c(c2)OCO3)cc1OC, the AC50 [1] was 25.1 µM (inconclusive).

With CN(C)C(=O)c1ccc(-c2ccc3ncnc(NCc4ccccc4)c3c2)cc1 the AC50 [2] was 31.6 µM (inconclusive).

In the case of Clc1ccc2c(NCCNc3ccnc4cc(Cl)ccc34)ccnc2c1, the AC50 [1] is reported as 5.01 µM (inconclusive).
